Where a name gives a salt, the structure may show the parent alone.
Assay: in vitro
Conditions: PAMPA, PAMPA-BBB Pe

Point of comparison: C=C(C)[C@@H]1CCC2=CCC[C@@H](C)[C@]2(C)C1, Papp 18 ×10⁻⁶ cm/s. Against it:
- COc1cc2c(cc1OC)[C@@H]1Cc3ccc(OC)c(OC)c3CN1CC2 [TETRAHYDROPALMATINE] — 8.7-fold higher, 156 ×10⁻⁶ cm/s

Same assay, conditions: PAMPA, PAMPA-BBB Pe(10^-6 cm/sec)

Point of comparison: COc1cc(/C=C/C(N)=O)cc(OC)c1OC [CINTRIAMIDE], Papp 2.3 ×10⁻⁶ cm/s. Against it:
- Oc1cc(O)c2c(c1)O[C@H](c1ccc(O)c(O)c1)[C@H](O)C2 [L-EPICATECHIN] — lower, < 1 ×10⁻⁶ cm/s
- Nc1c(O)cccc1C(=O)CC(N)C(=O)O (stereo not shown) [3-HYDROXYKYNURENINE] — lower, < 1 ×10⁻⁶ cm/s
- CC[C@]1(O)C[C@@H]2CN(CCc3c([nH]c4ccccc34)[C@@](C(=O)OC)(c3cc4c(cc3OC)N(C)[C@H]3[C@@](O)(C(=O)OC)[C@H](OC(C)=O)[C@]5(CC)C=CCN6CC[C@]43[C@@H]65)C2)C1 [VINBLASTINE] — 2.5-fold higher, 5.7 ×10⁻⁶ cm/s

Same assay, conditions: PAMPA, PAMPA-BBB Pe(10^-6 cm/sec), Table S3: compounds exhibiting low PAMPA-BBB permeability

Point of comparison: COc1ccc2cc1Oc1ccc(cc1)C[C@H]1c3cc(c(OC)cc3CCN1C)Oc1c(OC)c(OC)c(OC)c3c1[C@H](C2)N(C)CC3 [HERNANDEZINE], Papp 9.7 ×10⁻⁶ cm/s. Against it:
- COc1cc(-c2coc3cc(O[C@@H]4O[C@H](CO)[C@@H](O)[C@H](O)[C@H]4O)c(OC)c(O)c3c2=O)cc(O)c1OC [IRIDIN] — 7.5-fold lower, 1.3 ×10⁻⁶ cm/s
- O=C(/C=C/c1ccc(O)c(O)c1)O[C@@H]1C[C@](O)(C(=O)O)C[C@@H](O)[C@H]1O [CHLOROGENIC ACID] — lower, < 1 ×10⁻⁶ cm/s
- NC(=O)c1ncn([C@@H]2O[C@H](CO)[C@@H](O)[C@H]2O)c1N [ACADESINE] — lower, < 1 ×10⁻⁶ cm/s
- CCCCC/C=C\C=C\C(=O)OCC [ETHYL TRANS-2,CIS-4-DECADIENOATE] — lower, < 1 ×10⁻⁶ cm/s
- CNCCc1ccc(O)c(O)c1 [DEOXYEPINEPHRINE HYDROCHLORIDE] — lower, < 1 ×10⁻⁶ cm/s
- O=c1c(O)c(-c2cc(O)c(O)c(O)c2)oc2cc(O)cc(O)c12 [MYRICETIN] — lower, < 1 ×10⁻⁶ cm/s
- CC(C)=CCC/C(C)=C/COc1c2ccoc2cc2oc(=O)ccc12 [BERGAMOTTIN] — 1.7-fold lower, 5.8 ×10⁻⁶ cm/s
- CCNc1nc(N)nc(Cl)n1 — 8.8-fold lower, 1.1 ×10⁻⁶ cm/s
- CC(/C=C/C=C(\C)C(=O)O[C@@H]1O[C@H](CO[C@@H]2O[C@H](CO)[C@@H](O)[C@H](O)[C@H]2O)[C@@H](O)[C@H](O)[C@H]1O)=C\C=C\C=C(C)\C=C\C=C(/C)C(=O)O[C@@H]1O[C@H](CO[C@@H]2O[C@H](CO)[C@@H](O)[C@H](O)[C@H]2O)[C@@H](O)[C@H](O)[C@H]1O [CROCIN] — 1.6-fold lower, 6.1 ×10⁻⁶ cm/s
- COc1ccc(-c2coc3cc(O[C@@H]4O[C@H](CO)[C@@H](O)[C@H](O)[C@H]4O)ccc3c2=O)cc1 [ONONOSIDE] — lower, < 1 ×10⁻⁶ cm/s
- Cc1cc(O)c(C=O)c2c1C(=O)Oc1c(COC(=O)/C=C/C(=O)O)c(O)c(C(=O)O)c(C)c1O2 [FUMARPRO[…]] — lower, < 1 ×10⁻⁶ cm/s
- O=C(O)Cc1ccc(O)c(O)c1 [DOPACETIC ACID] — lower, < 1 ×10⁻⁶ cm/s
- Nc1nc(Cl)nc2c1ncn2[C@@H]1O[C@H](CO)C(O)[C@H]1O (stereo partly shown) [2-CHLOROADENOSINE] — lower, < 1 ×10⁻⁶ cm/s
- COc1cc(OC)c(C(C)=O)c(O)c1C [METHYLXANTHOXYLINE] — lower, < 1 ×10⁻⁶ cm/s
- Oc1cc(O)cc(/C=C/c2ccc(O)c(O)c2)c1 [[…]] — 9.7-fold lower, 1 ×10⁻⁶ cm/s
- C[S+](CC[C@H](N)C(=O)[O-])C[C@H]1O[C@@H](n2cnc3c(N)ncnc32)[C@H](O)[C@@H]1O (stereo partly shown) [S-ADENOSYLMETHIONINE] — lower, < 1 ×10⁻⁶ cm/s
- CC1NC(C(=O)O)Cc2c1[nH]c1ccccc21 (stereo not shown) — lower, < 1 ×10⁻⁶ cm/s
- C[C@H](O)C(=O)C1=Nc2c(nc(N)[nH]c2=O)NC1 [SEPIAPTERIN] — 6.1-fold lower, 1.6 ×10⁻⁶ cm/s
- O=c1c(O)cc([C@H]2Oc3cc(O)cc(O)c3C[C@H]2O)cc2c([C@H]3Oc4cc(O)cc(O)c4C[C@@H]3O)cc(O)c(O)c12 [THEAFLAVINE] — lower, < 1 ×10⁻⁶ cm/s
- O=C(O)c1ccccc1O [SALICYLIC ACID] — 5.4-fold lower, 1.8 ×10⁻⁶ cm/s
- NCCCS(=O)(=O)O [TR[…]] — 5.7-fold lower, 1.7 ×10⁻⁶ cm/s
- CCCCCCCCCCCCCCCCCCCC(=O)O [[…]] — lower, < 1 ×10⁻⁶ cm/s
- C/C=C1\[C@H]2C=C(C)C[C@]1(N)c1ccc(=O)[nH]c1C2 [HUPERZINE A] — within 1.5-fold, 8.1 ×10⁻⁶ cm/s
- COc1ccc([C@@H]2CC(=O)c3c(O)cc(O[C@@H]4O[C@H](CO)[C@@H](O)[C@H](O)[C@H]4O[C@@H]4O[C@@H](C)[C@H](O)[C@@H](O)[C@H]4O)cc3O2)cc1 [PONCIRIN] — lower, < 1 ×10⁻⁶ cm/s
- CC(=O)O[C@H]1C(=O)[C@@]2(C)[C@H]([C@H](OC(=O)c3ccccc3)[C@]3(O)C[C@H](O)C(C)=C1C3(C)C)[C@]1(OC(C)=O)CO[C@@H]1C[C@@H]2O [BACCATIN III] — lower, < 1 ×10⁻⁶ cm/s
- CNCC/C=C/c1cccnc1 [RIVANICLINE] — within 1.5-fold, 7.1 ×10⁻⁶ cm/s
- O=C1/C(=C\c2ccc(O)c(O)c2)Oc2c1ccc(O[C@@H]1O[C@H](CO)[C@@H](O)[C@H](O)[C@H]1O)c2O [[…]] — 9.7-fold lower, 1 ×10⁻⁶ cm/s
- O=c1c(O)c(-c2ccc(O[C@@H]3O[C@H](CO)[C@@H](O)[C@H](O)[C@H]3O)c(O)c2)oc2cc(O)cc(O)c12 [SPIRAEOSIDE] — lower, < 1 ×10⁻⁶ cm/s
- C[C@]12CC[C@@H]3c4ccc(O)cc4CC[C@H]3[C@@H]1C[C@@H](O)[C@@H]2O [ESTRIOL] — lower, < 1 ×10⁻⁶ cm/s
- CC(C)=CCC/C(C)=C/CC/C(C)=C/CO [FARNESOL TRANS,TRANS-FARNESOL] — lower, < 1 ×10⁻⁶ cm/s
- Nc1ncnc2c1ccn2[C@@H]1O[C@H](CO)[C@@H](O)[C@H]1O [TUBERCIDIN] — 4.6-fold lower, 2.1 ×10⁻⁶ cm/s
- CC=C1C[N+]2(C)CC[C@@]34C(=C(C=O)[C@H]1C[C@@H]32)Nc1ccccc14 (stereo partly shown) [METVINE] — lower, < 1 ×10⁻⁶ cm/s
- O=c1ccc2ccc(O)c(O)c2o1 [DAPHNETIN] — 2.6-fold lower, 3.8 ×10⁻⁶ cm/s
- COc1cc(C(O)C(=O)O)ccc1O (stereo not shown) [[…] ACID] — 1.7-fold lower, 5.6 ×10⁻⁶ cm/s
- COc1cc(C[C@@H](CO)[C@H](CO)Cc2ccc(O)c(OC)c2)ccc1O [SECOISOLARICIRESINOL] — lower, < 1 ×10⁻⁶ cm/s

Same assay, conditions: PAMPA, PAMPA-BBB Pe, Table S2: compounds exhibiting moderate to high PAMPA-BBB permeability

Point of comparison: CC(=O)[C@@]1(O)CC[C@H]2[C@@H]3CCC4=CC(=O)CC[C@]4(C)[C@H]3CC[C@@]21C [HYDROXYPROGESTERONE], Papp 110 ×10⁻⁶ cm/s. Against it:
- N[C@@H](Cc1cc(I)c(Oc2cc(I)c(O)c(I)c2)c(I)c1)C(=O)O [LEVOTHYROXINE] — within 1.5-fold, 83 ×10⁻⁶ cm/s
- O=c1ccc2ccccc2o1 [COUMARIN] — within 1.5-fold, 74 ×10⁻⁶ cm/s
- CCCCCCCCCCCCCC(=O)O[C@@H]1[C@@H](C)[C@@]2(O)[C@@H](C=C(CO)C[C@]3(O)C(=O)C(C)=C[C@@H]23)[C@@H]2C(C)(C)[C@]12OC(C)=O [PHORBOL MYRISTATE ACETATE] — 2.3-fold lower, 47 ×10⁻⁶ cm/s
- C[C@H]1COC2=C1C(=O)C(=O)c1c2ccc2c1CCCC2(C)C [[…]] — 9.2-fold lower, 12 ×10⁻⁶ cm/s
- COc1cc(O)c(C(C)=O)c(OC)c1 [XANTHOXYLINE] — within 1.5-fold, 149 ×10⁻⁶ cm/s
- COc1cc(OC)c2ccc(=O)oc2c1 [LIMETTIN] — within 1.5-fold, 105 ×10⁻⁶ cm/s
- COC(=O)C=Cc1ccccc1 [METHYL CINNAMATE] — within 1.5-fold, 98 ×10⁻⁶ cm/s
- C=C1CC[C@H](O)C/C1=C/C=C1\CCC[C@]2(C)[C@@H]([C@H](C)CCC(O)C(C)(C)O)CC[C@@H]12 (stereo partly shown) [24,25-DIHYDROXYVITAMIN D3] — within 1.5-fold, 78 ×10⁻⁶ cm/s
- COC(=O)C1=CO[C@@H](C)[C@H]2CN3CCc4c([nH]c5ccccc45)[C@@H]3C[C@H]12 [RAUBASINE HYDROCHLORIDE] — within 1.5-fold, 125 ×10⁻⁶ cm/s
- COc1ccc2ccc(=O)oc2c1 [7-METHOXYCOUMARIN] — within 1.5-fold, 77 ×10⁻⁶ cm/s
- CC[C@@]1(O)C[C@H](O[C@H]2C[C@H](N(C)C)[C@H](O)[C@H](C)O2)c2c(cc3c(c2O)C(=O)c2c(O)cccc2C3=O)[C@H]1C(=O)OC [AKLAVINE] — within 1.5-fold, 116 ×10⁻⁶ cm/s
- COc1cc(/C=C/c2ccccc2)oc(=O)c1 [DEMETHOXYYANGONIN] — 1.7-fold higher, 186 ×10⁻⁶ cm/s
- COc1ccc2c(c[n+](C)c3c4cc5c(cc4ccc23)OCO5)c1OC [CHELE[…]] — within 1.5-fold, 95 ×10⁻⁶ cm/s
- COc1cc2c(cc1O)C[C@H]1c3c(cc(O)c(OC)c3-2)CCN1C [BOLDINE] — 2.2-fold lower, 49 ×10⁻⁶ cm/s
- C=CCc1ccc(O)c(OC)c1 [EUGENOL] — within 1.5-fold, 116 ×10⁻⁶ cm/s

— article PMC11876671, “Investigating blood–brain barrier penetration and neurotoxicity of natural products for central nervous system drug development” (Scientific Reports, 2025)
